Here are results for 4 molecules from patent US20240197596A1, “COMPOUNDS USEFUL AS HAIR DYES” (National University of Singapore, priority 2021, published 2024).

Each structure is given as a SMILES string. ≈ marks a conversion by molar mass, not a printed value.

A word on the IC50: it is the concentration needed to halve the response being measured. The term solubility denotes the concentration that dissolves in the medium under given conditions. Low values mean a poorly soluble substance, high ones a readily soluble substance.

The subject of one data set is HaCaT cells. The settings on record: data from J Hazard Mat., 2021, 402, 123712; cited from earlier work.
Data set [1] has as its system THP-1 cells. In words: h-CLAT assay on THP-1 cells: markers against OECD cut-off, prediction, cell viability. In kind it is cell-based, human. The settings on record: for CD54 and CD86 marker expression against OECD cut-off: 8 doses based on CV75, 24 h. As to the method: (§1) The assay was conducted as per the literature (Toxicol In Vitro, 2006, 20, 767-73). THP-1 cells were cultured in 24-well plates (1×10^6 cells/1 mL/well) with various concentrations of each chemical (N1-N13), +ve control (DNCB), −ve control for 24 h.
(§2) THP-1 cells were cultured in 24-well plates (1×10^6 cells/mL/well) and treated with recommended concentrations of each chemical (N1-N13), positive control (DNCB) or negative control (SLS) for 24 h. THP-1 cells were cultured and treated with 8 doses of N1-N13 based on the CV75 namely, 1.2×CV75, 1×CV75, 1/1.2×CV75, 1/1.2^2×CV75, 1/1.23×CV75, 1/1.24×CV75, 1/1.2^5×CV75 and 1/1.2^6×CV75. After 24 h, cells were transferred to 1.5 mL of microtubes and centrifuged at 450 g, 5 min, 4° C. Supernatant was discarded and cells were washed with 1 mL of FACS buffer (PBS+FBS+HEPES). The cells were centrifuged at 450 g, 5 min, 4° C. 50 μL of Fc block (0.01% of Globlins Cohn fraction II, III) was added and incubated for 10 min at 4° C. The cells were stained with 20 μL APC CD54 (Mouse IgG1, K, BD Biosciences, San Diego, CA, USA), 20 μL FITC CD86 (Mouse IgG1, K, BD Biosciences, San Diego, CA, USA) or their respective isotype controls and incubated for 15 min at room temperature in dark. After incubation, the antibodies were diluted with 200 μl FACS buffer. The cells were washed with 1 mL FACS buffer twice. Further, 200 μL Propidium iodide (PI, 0.625 μg/mL) prepared in FACS buffer was added before the flow cytometry analysis. Flow cytometric analysis was performed with BD LSR Fortessa™ (Becton Dickinson, San Jose, CA, USA) In total, 10,000 living cells were analysed, and data were processed using Flowjo software (v10.6, Ashland, OR, USA). The test concentration providing a cell viability of 75% (CV75) was derived from the dose response curve and was calculated by log-linear interpolation.
(§3) Geometric mean fluorescence intensity (MFI) was measured for CD54^+ and CD86^+ cells separately and percentage relative fluorescence intensity (% RFI), reflective of CD86 and CD54 relative expression was calculated as described below. RFI was not calculated if cell viability fell below 50%.
(§4) All chemicals were tested in three independent experiments. If in two of three independent experiments at any dose exceeded 150% RFI for CD86, or 200% RFI for CD54, the chemicals could be identified as a sensitizer. Otherwise it is identified as a non-sensitizer.

A short description of data set [2]: Thermodynamic solubility assay (modified shake flask, LC-MS/MS). The settings on record: for solubility at 24 h: 25 °C, pH 7, water, thermodynamic from solid. As to the method: The aqueous solubilities (pH=7) of these compounds were measured using the modified shake flask method and LC-MS/MS. Each hair dye was added into a 2 mL glass vial containing Milli-Q water (1 mL) to form the precipitates at 25° C. Then the mixture was subjected to a solubility-equilibrium stage. The vials were shaken at 300 rpm at 25° C. for 24 h. The precipitate was separated by centrifugation at 23,000 g for 20 min. Subsequently, 0.5 mL of supernatant was transferred into a 1 mL Eppendorf tube, and it was centrifuged again as mentioned above. The supernatant was then used for LC-MS/MS analysis.
The mass spectrometric analysis was performed by use of a AB SCIEX QTRAP 5500 tandem mass spectrometry (MS/MS) system (AB SCIEX, Framingham, MA, USA) operating in triple quadrupole positive mode (ESI+) equipped with an AB Sciex Turbo Ion Spray interface. Acquisition and analysis of data were performed with Analyst software ver. 1.4.2 (Applied Biosystems) which performed all chromatographic peak integration. For each hair dye, a standard curve consisting of four concentrations was established.
Solvent A was composed of 0.1% [v/v] formic acid in Milli-Q water while solvent B was composed of 0.1% [v/v] formic acid in acetonitrile. A mobile phase gradient pumped at 0.6 mL/min was used to elute the hair dyes from the column. The column was equilibrated for 1 min resulting in a total run time of 5 min. The injection volume was 5.0 μL for all derivatives. To prevent compound accumulation on the needle, 50% methanol in ACN was used as needle wash for 30 s per sample.

Data set [3] relates to THP-1 cells. Description: MTT assay on THP-1 cells (CV75). The data set is classed as cell-based, human. As to the method: THP-1 (human acute monocytic leukaemia cell line) cell suspension was adjusted to 1×10^5 cells per well and seeded in 96-well plates. The plate was incubated at 37° C. with 5% CO2. After 24 h, 10 mM stock solutions of N1-N13 were prepared in autoclaved milli-Q water. A series of concentrations diluted in media was prepared and added to the wells. Each concentration was performed in 6-replicates, and seeded wells with only media and no compound were used as controls while wells with only media were used as blanks. The plate was incubated for 24 h, after which 100 μL of MTT reagent was added and the plate was further incubated for 3 h before adding 100 μL of DMSO. Subsequently, the plate was shaken for 20 min, and then absorbance at 570 nm was determined using a Bio-Tek plate reader. Percentage cell viability was calculated and CV75 values were determined.
In general terms: Tetrazolium assays rely on reduction of a dye to a coloured formazan, in cell work by metabolically active cells.

The conditions of data set [4]: data from J Hazard Mat., 2021, 402, 123712, cited from earlier work.
The subject of another data set is IL-1α. The settings on record: data from J Hazard Mat., 2021, 402, 123712 (FIG. 6); cited from earlier work.
In a further data set the test system is CD54. Description: h-CLAT assay, CD54 expression by flow cytometry. The settings on record: for EC200 for CD54 (lowest concentration inducing % RFI of 200): THP-1 cells, 24 h; for RFI for CD54: at CV75, 24 h. In kind it is cell-based, human. Here is the method: as §1, §2, §3, §4
A further data set relates to IL-8. The settings on record: data from J Hazard Mat., 2021, 402, 123712 (FIG. 6); cited from earlier work.
Another data set relates to CD86. Description: h-CLAT assay, CD86 expression by flow cytometry. In kind it is cell-based, human. The settings on record: for EC150 for CD86 (lowest concentration inducing % RFI of 150): THP-1 cells, 24 h; for RFI for CD86: at CV75, 24 h. As to the method:
as §1, §2, §3, §4
(In general: In flow cytometry, cells or beads pass a laser one at a time.)

For `Cc1cc(N)ccc1N` [PTD, 2-methylbenzene-1,4-diamine], the IC50 in the data set on HaCaT cells was 73.1 µM. Besides, the “CD54 and CD86 marker expression against OECD cut-off” value (shortened to “CD54 and CD86 marker expression”) with THP-1 cells [1] is listed as “above the recommended threshold”. Besides, the solubility at 24 h in [2] is 2.5 mg/mL (≈ 20.5 mM). Further, in the data set with THP-1 cells [3] (human), the “CV75 (concentration affording 75% cell viability), 1 × CV75” value was determined as 43.4 µg/mL. In [4], the “Recovered in donor compartment” value is listed as 95 % of applied compound dose, the Recovered in skin is listed as 2.1 % of applied compound dose, the “Recovered in skin outside diffusion area” value was 0.0077 % of applied compound dose and the “Recovered in skin swabs” value is given as 0.48 % of applied compound dose. Further, in data set [4], the “Recovered on parafilm and in washes” value is recorded as 0.68 % of applied compound dose; the “Total recovery (mean percentage parent compound recovery)” value is on record as 99 ± 0.33%. In addition, the “release of IL-1α” value in the data set with IL-1α is “higher concentrations”. Besides, in the data set with CD54, the “EC200 for CD54 (lowest concentration inducing % RFI of 200)” value turned out to be 35.35 µg/mL. For the same molecule, in the data set on IL-8, the “release of IL-8” value is “higher concentrations”. The “EC150 for CD86 (lowest concentration inducing % RFI of 150)” value in the data set with CD86 came out at 34.3 µg/mL.
Consider `CCCCCCCCCCCCOS(=O)(=O)[O-].[Na+]` [SLS, reference compound], for which the “CD54 and CD86 marker expression” value in the data set with THP-1 cells [1] was “did not express markers”. Further, in the data set on THP-1 cells [3] (THP-1 cells, 24 h), the “CV75 (concentration affording 75% cell viability), 1 × CV75” value came to 56.0 µg/mL.
As for `Nc1ccc(N)cc1` [PPD, para-phenylenediamine], the IC50 in the data set with HaCaT cells is 23.4 µM. In addition, the “CD54 and CD86 marker expression” value in the data set on THP-1 cells [1] is given as “above the recommended threshold”. Besides, the “marker induction, times lower than DNCB” value with THP-1 cells [1] (human, 24 h) is reported as 1.6. Moreover, the concentration in solution in [2] (solubility at 24 h) came to 40 mg/mL (≈ 370 mM). For the same molecule, the “solubility in per cent” value in data set [2] (water) is listed as 4%. Also, the “CV75 (concentration affording 75% cell viability), 1 × CV75” value in the data set on THP-1 cells [3] (THP-1 cells, 24 h) is 65.4 µg/mL. In data set [4] (8 h), the “Cumulative amount at 8th hour” value is recorded as 5.4 μg/cm^2. Further, in data set [4], the “Permeated through skin into receptor” value is recorded as 0.038 % of applied compound dose, the “Recovered in donor compartment” value was 83 % of applied compound dose, the Recovered in skin is given as 4.3 % of applied compound dose and the “Recovered in skin outside diffusion area” value is 0.0050 % of applied compound dose. Further, in data set [4], the “Recovered in skin swabs” value was 0.82 % of applied compound dose; the “Recovered on parafilm and in washes” value is reported as 2.19 % of applied compound dose; the “Total recovery (mean percentage parent compound recovery)” value was 93 ± 0.52%. In addition, the “release of IL-1α” value in the data set with IL-1α is reported as “higher concentrations”. Also, in the data set with CD54, the “EC200 for CD54 (lowest concentration inducing % RFI of 200)” value stood at 35.0 µg/mL and the “RFI for CD54” value worked out at 270%. Moreover, the “release of IL-8” value in the data set on IL-8 is “higher concentrations”. Further, in the data set with CD86, the “EC150 for CD86 (lowest concentration inducing % RFI of 150)” value is 39.4 µg/mL and the “RFI for CD86” value was found to be 210%.
Turning to `O=[N+]([O-])c1ccc(Cl)c([N+](=O)[O-])c1` [DNCB], the “CV75 (concentration affording 75% cell viability), 1 × CV75” value with THP-1 cells [3] (THP-1 cells, 24 h) amounted to 3.0 µg/mL. In addition, in the data set on CD54, the “EC200 for CD54 (lowest concentration inducing % RFI of 200)” value was determined as 1.5 µg/mL and the “RFI for CD54” value was determined as 450%. For the same molecule, in the data set on CD86, the “EC150 for CD86 (lowest concentration inducing % RFI of 150)” value came out at 1.4 µg/mL and the “RFI for CD86” value is recorded as 326%.
